Series [1] concerns the target T1, acetylcholinesterase (Homo sapiens, UniProt P22303).
T1 construct: purchased Sigma-Aldrich
In kind it is biochemical. The settings on record: alkaloid standards; HPLC-DAD; 0.2 U/mL enzyme; 15 min at 37 °C; pH 7.8. Here is the method:
For determination of acetylcholinesterase inhibitory activity of alkaloid standards and plant extracts by HPLC analysis was performed on the same apparatus as determination of alkaloid contents on Polar RP column with mobile phase A containing methanol and 0.0025 M diethylamine, mobile phase B containing acetate buffer at pH 3.8 and 0.0025 M diethylamine, mobile phase in gradient elution: 0–15 min, 10% A; 15–30 min, 10–70% A; 30–60 min, 70% A. Flow rate was 1 mL/min.
Samples for determination of acetylcholinesterase inhibitory activity were prepared by addition of 50 µL of acetylthiocholine iodide, 50 µL of 5′-dithiobis-(2-nitrobenzoic acid), 50 µL of acetylcholinesterase at concentration 2 U/mL and phosphate buffer at pH 7.8 to obtaining 500 µL of final solution. […] All components were mixed and samples were incubated for 15 min at 37 °C. Samples were filtrated by syringe filter (CHROMAFIL Xtra, PVDF-29/25 0.20 µm) and injected into HPLC system. […] All experiments were performed in triplicates.

Series [2] has as its target T2, butyrylcholinesterase (Homo sapiens, UniProt P06276).
T2 construct: purchased Sigma-Aldrich
The series is described as follows: Butyrylcholinesterase inhibitory activity by HPLC-DAD (Ellman reaction product TNBA). In kind it is biochemical. The following applies: alkaloid standards, 0.2 U/mL enzyme, 15 min at 37 °C. The procedure: For determination of butyrylcholinesterase inhibitory activity of alkaloid standards and plant extracts by HPLC analysis was performed on the same apparatus, column and mobile phase as determination of acetylcholinesterase inhibitory activity.
Samples for determination of butyrylcholinesterase inhibitory activity were prepared by addition of 50 µL of butyrylthiocholine iodide, 50 µL of 5′-dithiobis-(2-nitrobenzoic acid), 50 µL of butyrylcholinesterase at concentration 2 U/mL and phosphate buffer at pH 7.8 to obtaining 500 µL of final solution. […] All components were mixed and samples were incubated for 15 min at 37 °C. Samples were filtrated by syringe filter (CHROMAFIL Xtra, PVDF-29/25 0.20 µm) and injected into HPLC system. […] All experiments were performed in triplicates.
In general terms: Ellman's reagent forms a yellow product with free thiols.

The test system of series [3] is pig livers. The settings on record: 32P-post-labeling assay; cited from earlier work.
Series [4] addresses T1, acetylcholinesterase. The experiment in a line: Kinetic analysis of acetylcholinesterase inhibition (Lineweaver-Burk and secondary plots). It counts as biochemical. The following applies: for type of acetylcholinesterase inhibition: Lineweaver-Burk and Dixon plots; for Ki: estimated from slope of Lineweaver-Burk plots vs inhibitor concentration, read-out: Ki (inhibition constant), acetylcholinesterase. The source says: The type of inhibition and inhibition constants (Ki value) of the compounds were investigated using Lineweaver–Burk and Dixon plots (Figure 5 and Figure 6).
The Ki values were estimated by plotting the slope of the individual Lineweaver–Burk plots versus the inhibitor concentrations (Figure 5B and Figure 6B).
For determination of 5-thio-2-nitro-benzoic acid, the product of reaction between the thiocholine with Ellman’s reagent, HPLC-DAD method was applied. The chromatographic analysis was performed in the same conditions as was used for determination of cholinesterase activity described above. Quantification of 5-thio-2-nitro-benzoic acid was performed by a calibration curve method. 5-thio-2-nitrobenzoic acid was prepared from 5′-dithiobis-(2-nitrobenzoic acid) as described by Landino et al.. 0.5 g of 5′-dithiobis-(2-nitrobenzoic acid) in 25 mL 0.5 M Tris–HCl, pH 8.8, was treated with 2.5 mL β-mercaptoethanol. The pH of the solution was adjusted to 1.5 with 6M HCl. 5-thio-2-nitro-benzoic acid was formed after 6–8 h at 4 °C. The crystals of -thio-2-nitro-benzoic acid were filtered and washed with cold 0.1 M HCl. Types of inhibition were determined by the graphical analysis of Lineweaver–Burk plots and its secondary plots.

The subject of series [5] is swine or human cell lines. The settings on record: cited from earlier work.
Series [6] addresses T1, acetylcholinesterase. The following applies: modified Ellman's method; read-out: IC50 against acetylcholinesterase; cited from earlier work.
For series [7], the target named is T2, butyrylcholinesterase. The following applies: modified Ellman's method; read-out: IC50 against butyrylcholinesterase; cited from earlier work.
Setting [8] is: pH 7.8, read-out: IC50 values Butyrylcholinesterae.
The mark [9] stands for this setting: pH 7.8, read-out: IC50 values Butyrylcholinesterae (μg/mL) (converted).

The structures appear in SMILES notation. Values after ≈ are worked out from the molar mass of the structure shown. Where two headings read alike, the source gives them in different places.

T2 sequence (P06276 29-602): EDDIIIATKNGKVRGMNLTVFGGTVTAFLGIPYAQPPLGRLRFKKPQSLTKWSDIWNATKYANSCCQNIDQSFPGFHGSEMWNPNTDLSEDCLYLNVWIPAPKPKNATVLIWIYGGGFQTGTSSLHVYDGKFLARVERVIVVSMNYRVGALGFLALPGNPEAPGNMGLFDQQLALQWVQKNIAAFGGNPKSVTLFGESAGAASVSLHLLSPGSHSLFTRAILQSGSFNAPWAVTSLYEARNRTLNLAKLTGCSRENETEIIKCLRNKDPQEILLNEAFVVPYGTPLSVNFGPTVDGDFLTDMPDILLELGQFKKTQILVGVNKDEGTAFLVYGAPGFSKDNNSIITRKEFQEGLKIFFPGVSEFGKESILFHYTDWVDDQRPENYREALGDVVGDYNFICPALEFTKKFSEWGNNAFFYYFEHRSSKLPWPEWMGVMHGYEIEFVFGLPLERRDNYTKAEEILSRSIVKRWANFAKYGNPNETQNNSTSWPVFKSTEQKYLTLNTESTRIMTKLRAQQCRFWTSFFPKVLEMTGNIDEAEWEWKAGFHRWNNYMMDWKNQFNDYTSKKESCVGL
T1 sequence (P22303 32-614, species assumed): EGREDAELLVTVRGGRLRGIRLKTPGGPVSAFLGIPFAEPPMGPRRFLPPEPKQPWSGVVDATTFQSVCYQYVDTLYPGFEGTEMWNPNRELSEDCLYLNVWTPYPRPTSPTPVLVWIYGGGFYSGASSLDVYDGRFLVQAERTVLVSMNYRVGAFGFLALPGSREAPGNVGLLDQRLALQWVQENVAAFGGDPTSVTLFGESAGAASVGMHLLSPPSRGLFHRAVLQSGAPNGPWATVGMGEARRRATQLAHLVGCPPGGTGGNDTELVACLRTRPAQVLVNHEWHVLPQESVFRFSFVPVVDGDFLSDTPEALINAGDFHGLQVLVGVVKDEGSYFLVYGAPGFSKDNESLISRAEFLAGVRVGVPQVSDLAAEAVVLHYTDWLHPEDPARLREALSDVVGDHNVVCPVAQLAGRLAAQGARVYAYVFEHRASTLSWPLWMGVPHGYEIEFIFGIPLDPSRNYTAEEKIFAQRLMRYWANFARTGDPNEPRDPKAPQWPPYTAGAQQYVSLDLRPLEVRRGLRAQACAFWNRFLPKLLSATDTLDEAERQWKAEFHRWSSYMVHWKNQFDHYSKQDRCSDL

Take `CN1CCc2cc3c(cc2C(=O)Cc2ccc4c(c2C1)OCO4)OCO3` [Protopine, protopine]: the “IC50 values Acetylcholinesterase” value in series [1] stood at 24.67 µg/mL (≈ 69.8 µM). The IC50 was 52.8 ± 4.81 µM in series [2] (IC50 values Butyrylcholinesterae (μM), pH 7.8) and 52.8 µM in series [2] (IC50 values Butyrylcholinesterae (μg/mL), pH 7.8).
As usually defined, the Ki is the dissociation constant of the complex between target and ligand, obtained from inhibition or displacement. For the compound `C[n+]1cc2c3c(ccc2c2ccc4cc5c(cc4c21)OCO5)OCO3` [Sanguinarine, sanguinarine], the IC50 in series [1] was 5570 ± 470 nM; in series [2] (setting [8]), 9.82 ± 0.91 µM; in series [2] (setting [9]), 9.81 µM. Further, the DNA adducts entry in series [3] is listed as “no DNA adducts”. For the same compound, the “type of acetylcholinesterase inhibition” value in series [4] is reported as “noncompetitive”. Besides, in series [4], the Ki is 200 nM. Also, the toxicity result in series [5] is reported as “low toxicity”.
For the compound `COc1ccc2c(c[n+](C)c3c4cc5c(cc4ccc23)OCO5)c1OC` [Chelerythrine, chelerythrine], the IC50 was 720 ± 80 nM in series [1]; 1030 nM in series [6]; 3550 nM in series [7]; 2.15 ± 0.19 µM in series [2] (setting [8]); 2.15 µM in series [2] (setting [9]). Moreover, the DNA adducts entry in series [3] was “no DNA adducts”. The “type of acetylcholinesterase inhibition” value in series [4] is reported as “competitive”. The Ki in series [4] is 180 nM. In addition, the toxicity result in series [5] is given as “low toxicity”.
